Drawing on patent publication US8124610B2, “Sodium channel inhibitors” (Icagen Inc., priority 2007, dated 2012), this text covers IC50 for 26 molecules.

The assay addresses T1, hSCN9A (Homo sapiens, UniProt Q15858).
T1 construct: expressed in transfected cells
In words: Whole-cell patch-clamp electrophysiology (conventional or PatchXpress), HEK cells expressing hSCN9A, estimated IC-50. The assay is classed as cell-based. The conditions noted are these: estimated IC-50, HEK cells expressing hSCN9A; class symbols or bounds; read-out: SCN9A EIC-50. As for the experimental part:
Human Embryonic Kidney (HEK) cells were transfected with hSCN3A or hSCN9A constructs using lipofectamine reagent (Invitrogen), using standard techniques. Cells stably expressing the hSCN3A or hSCN9A constructs were identified by their resistance to G-418 (400 μg/ml). Clones were screened for expression using the whole-cell voltage-clamp technique. HEK cells stably transfected with hSCN3A or hSCN9A were maintained in DMEM medium supplemented with 10% heat-inactivated fetal bovine serum and 400 μg/ml G418 sulfate in an incubator at 37° C. with a humidified atmosphere of 10% CO2. For HTS, cells were harvested from flasks by trypsinization and replated in an appropriate multi-well plate (typically 96 or 384 wells/plate) such that confluence would be achieved within 24 hours of plating. For electrophysiological studies, cells were removed from the culture flask by brief trypsinization and replated at low density onto glass cover slips. Cells were typically used for electrophysiological experiments within 24 to 72 h after plating. Cover slips containing HEK cells expressing hSCN3A or hSCN9A were placed in a bath on the stage of an inverted microscope and perfused (approximately 1 ml/min) with extracellular solution of the following composition: 138 mM NaCl, 2 mM CaCl2, 5.4 mM KCl, 1 mM MgCl2, 10 mM glucose, and 10 mM HEPES, pH 7.4, with NaOH. […] All recordings were made at room temperature (22-24° C.) using AXOPATCH 200B amplifiers and PCLAMP software (Axon Instruments, Burlingame, Calif.) or PatchXpress 7000 hardware and associated software (Axon Instruments, Burlingame, Calif.). hSCN3A or hSCN9A currents in HEK cells were measured using the whole-cell configuration of the patch-clamp technique (Hamill et al., 1981). […] As a result, voltage errors were negligible and no correction was applied. Current records were acquired at 20 to 50 KHz and filtered at 5 to 10 KHz. HEK cells stably transfected with hSCN3A or hSCN9A were viewed under Hoffman contrast optics and placed in front of an array of flow pipes emitting either control or compound-containing extracellular solutions. All compounds were dissolved in dimethyl sulfoxide to make 10 mM stock solutions, which were then diluted into extracellular solution to attain the final concentrations desired. […] The voltage-dependence of inactivation was determined by applying a series of depolarizing prepulses (8 sec long in 10 mV increments) from a negative holding potential. The voltage was then immediately stepped to 0 mV to assess the magnitude of the sodium current. Currents elicited at 0 mV were plotted as a function of prepulse potential to allow estimation of the voltage midpoint of inactivation (V1/2). Cells were then voltage clamped at the empirically determined V1/2. Compounds were tested for their ability to inhibit hSCN3A or hSCN9A sodium channels by activating the channel with a 20 msec voltage step to 0 mV following an 8 second conditioning prepulse to the empirically determined V1-2 (Table B). Compound effect (% inhibition) was determined by difference in current amplitude before and after application of test compounds. […] In some cases electrophysiological assays were conducted with PatchXpress 7000 hardware and associated software (Molecular Devices Corp) (Table B). All assay buffers and solutions were identical to those used in conventional whole-cell voltage clamp experiments described above. hSCN3A or hSCN9A containing cells were grown as above to 50%-80% confluency and harvested by trypsinization. Trypsinized cells were washed and resuspended in extracellular buffer at a concentration of 1×10^6 cells/ml. The onboard liquid handling facility of the PatchXpress was used for dispensing cells and application of test compounds. Determination of the voltage midpoint of inactivation was as described for conventional whole-cell recordings. Cells were then voltage-clamped to the empirically determined V1/2 and current was activated by a 20 msec voltage step to 0 mV.

Each structure is given as a SMILES string.

T1 sequence (Q15858 whole entry): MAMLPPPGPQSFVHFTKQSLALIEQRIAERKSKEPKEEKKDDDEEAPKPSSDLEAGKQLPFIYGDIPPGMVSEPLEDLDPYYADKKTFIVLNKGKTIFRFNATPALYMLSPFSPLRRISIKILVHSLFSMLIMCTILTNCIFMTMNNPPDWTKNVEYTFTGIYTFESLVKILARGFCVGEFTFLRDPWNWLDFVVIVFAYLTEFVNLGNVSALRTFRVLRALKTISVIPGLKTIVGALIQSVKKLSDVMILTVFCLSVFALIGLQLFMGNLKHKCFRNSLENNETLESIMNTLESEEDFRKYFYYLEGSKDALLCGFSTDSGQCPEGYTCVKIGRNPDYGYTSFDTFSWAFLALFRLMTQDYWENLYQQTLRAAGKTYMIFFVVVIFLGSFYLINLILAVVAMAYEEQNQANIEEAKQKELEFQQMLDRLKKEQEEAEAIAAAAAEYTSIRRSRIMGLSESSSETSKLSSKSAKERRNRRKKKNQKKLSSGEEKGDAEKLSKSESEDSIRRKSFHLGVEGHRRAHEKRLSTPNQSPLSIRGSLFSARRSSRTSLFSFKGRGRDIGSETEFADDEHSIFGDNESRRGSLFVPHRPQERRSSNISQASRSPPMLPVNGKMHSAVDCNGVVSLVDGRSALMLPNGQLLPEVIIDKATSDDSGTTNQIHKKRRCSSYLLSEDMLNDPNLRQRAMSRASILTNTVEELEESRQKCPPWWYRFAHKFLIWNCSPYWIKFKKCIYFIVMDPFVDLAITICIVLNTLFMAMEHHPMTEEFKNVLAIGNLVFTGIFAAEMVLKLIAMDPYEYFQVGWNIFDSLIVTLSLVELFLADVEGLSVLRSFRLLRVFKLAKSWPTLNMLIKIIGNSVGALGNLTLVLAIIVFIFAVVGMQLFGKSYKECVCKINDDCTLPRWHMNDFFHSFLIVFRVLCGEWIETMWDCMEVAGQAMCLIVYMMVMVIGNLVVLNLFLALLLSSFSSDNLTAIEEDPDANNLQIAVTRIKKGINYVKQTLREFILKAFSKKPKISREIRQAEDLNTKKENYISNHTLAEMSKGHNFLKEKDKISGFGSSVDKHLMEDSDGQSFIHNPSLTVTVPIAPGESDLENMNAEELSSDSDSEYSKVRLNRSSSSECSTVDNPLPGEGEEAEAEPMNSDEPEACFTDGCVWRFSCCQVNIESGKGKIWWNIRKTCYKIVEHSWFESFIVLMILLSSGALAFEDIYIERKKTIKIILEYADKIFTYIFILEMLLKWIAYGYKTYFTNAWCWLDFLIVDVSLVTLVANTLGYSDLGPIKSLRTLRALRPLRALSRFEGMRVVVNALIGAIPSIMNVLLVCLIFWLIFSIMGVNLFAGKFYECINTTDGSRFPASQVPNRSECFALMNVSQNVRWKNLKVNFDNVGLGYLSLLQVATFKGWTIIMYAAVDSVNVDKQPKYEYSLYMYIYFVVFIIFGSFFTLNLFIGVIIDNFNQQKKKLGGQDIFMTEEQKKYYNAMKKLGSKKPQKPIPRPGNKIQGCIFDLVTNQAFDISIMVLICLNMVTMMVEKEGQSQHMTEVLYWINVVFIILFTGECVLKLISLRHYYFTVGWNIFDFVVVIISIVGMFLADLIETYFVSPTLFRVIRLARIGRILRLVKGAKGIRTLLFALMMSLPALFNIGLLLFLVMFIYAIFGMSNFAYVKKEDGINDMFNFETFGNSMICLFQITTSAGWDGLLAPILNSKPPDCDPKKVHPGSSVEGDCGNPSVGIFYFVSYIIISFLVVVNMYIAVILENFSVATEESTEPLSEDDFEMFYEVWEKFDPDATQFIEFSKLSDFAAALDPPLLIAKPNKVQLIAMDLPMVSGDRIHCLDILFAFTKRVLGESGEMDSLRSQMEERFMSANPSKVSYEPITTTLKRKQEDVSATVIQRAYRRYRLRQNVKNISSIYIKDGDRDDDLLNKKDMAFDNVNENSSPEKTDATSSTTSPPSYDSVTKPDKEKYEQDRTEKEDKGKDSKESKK

For the molecule `Cn1ncc(-c2ccccc2)c1Nc1ccc(S(=O)(=O)Nc2nccs2)c(F)c1` [Compound 148, 2-fluoro-4-(1-methyl-4-phenyl-1H-pyrazol-5-ylamino)-N-(thiazol-2-yl)benzenesulfonamide], the IC50 is 2 to 10 µM.

Turning to `Cc1ccc(Cc2cc(Nc3ccc(S(=O)(=O)Nc4nccs4)c(F)c3)n(C(C)(C)C)n2)cc1` [Compound 157, 4-(1-tert-butyl-3-(4-methylbenzyl)-1H-pyrazol-5-ylamino)-2-fluoro-N-(thiazol-2-yl)benzenesulfonamide], the IC50 was below 2 µM.

With `Cc1ccc(Cc2cc(Nc3ccc(S(=O)(=O)Nc4nccs4)cc3F)n(C(C)(C)C)n2)cc1` [Compound 158, 4-(1-tert-butyl-3-(4-methylbenzyl)-1H-pyrazol-5-ylamino)-3-fluoro-N-(thiazol-2-yl)benzenesulfonamide], the IC50 was below 2 µM.

Turning to `Cc1ccc(Cc2cc(Nc3ccc(S(=O)(=O)Nc4nccs4)c(F)c3)n(C)n2)cc1` [Compound 159, 2-fluoro-4-(1-methyl-3-(4-methylbenzyl)-1H-pyrazol-5-ylamino)-N-(thiazol-2-yl)benzenesulfonamide], the IC50 was below 2 µM.

Turning to `Cc1ccc(Cc2cc(Nc3ccc(S(=O)(=O)Nc4nccs4)cc3F)n(C)n2)cc1` [Compound 160, 3-fluoro-4-(1-methyl-3-(4-methylbenzyl)-1H-pyrazol-5-ylamino)-N-(thiazol-2-yl)benzenesulfonamide], the IC50 is below 2 µM.

On to `Cc1cc(Nc2ccc(S(=O)(=O)Nc3ncc(Cl)s3)cc2)n(-c2ccccc2)n1` [Compound 163, N-(5-chlorothiazol-2-yl)-4-(3-methyl-1-phenyl-1H-pyrazol-5-ylamino)benzenesulfonamide], for which the IC50 was 2 to 10 µM.

In the case of `CC(C)(C)n1nc(Cc2cccc(Cl)c2)cc1Nc1ccc(S(=O)(=O)Nc2nccs2)c(F)c1` [Compound 164, 4-(1-tert-butyl-3-(3-chlorobenzyl)-1H-pyrazol-5-ylamino)-2-fluoro-N-(thiazol-2-yl)benzenesulfonamide], the IC50 is below 2 µM.

As for `Cc1ccc(Cc2cc(Nc3ccc(S(=O)(=O)Nc4nccs4)c(F)c3)[nH]n2)cc1` [Compound 165, 2-fluoro-4-(3-(4-methylbenzyl)-1H-pyrazol-5-ylamino)-N-(thiazol-2-yl)benzenesulfonamide], the IC50 was below 2 µM.

Regarding `CC(C)(C)n1nc(Cc2ccc(Cl)c(F)c2)cc1Nc1ccc(S(=O)(=O)Nc2nccs2)c(F)c1` [Compound 166, 4-(1-tert-butyl-3-(4-chloro-3-fluorobenzyl)-1H-pyrazol-5-ylamino)-2-fluoro-N-(thiazol-2-yl)benzenesulfonamide], the IC50 was below 2 µM.

Regarding `Cc1ccc(Cc2cc(Nc3ccc(S(=O)(=O)Nc4nccs4)cc3F)[nH]n2)cc1` [Compound 167, 3-fluoro-4-(3-(4-methylbenzyl)-1H-pyrazol-5-ylamino)-N-(thiazol-2-yl)benzenesulfonamide], the IC50 was below 2 µM.

`O=S(=O)(Nc1nccs1)c1ccc(Nc2ccnn2-c2ccccc2)cc1F` [Compound 168, 2-fluoro-4-(1-phenyl-1H-pyrazol-5-ylamino)-N-(thiazol-2-yl)benzenesulfonamide]: the IC50 was below 2 µM.

`Cc1cc(Nc2ccc(S(=O)(=O)Nc3nccs3)c(F)c2)n(C2CCCC2)n1` [Compound 169, 4-(1-cyclopentyl-3-methyl-1H-pyrazol-5-ylamino)-2-fluoro-N-(thiazol-2-yl)benzenesulfonamide]: the IC50 was below 2 µM.

On to `Cc1cc(Nc2ccc(S(=O)(=O)Nc3nccs3)c(F)c2)n(-c2ccc(C(F)(F)F)cc2)n1` [Compound 170, 2-fluoro-4-(3-methyl-1-(4-(trifluoromethyl)phenyl)-1H-pyrazol-5-ylamino)-N-(thiazol-2-yl)benzenesulfonamide], for which the IC50 was below 2 µM.

`O=S(=O)(Nc1nccs1)c1ccc(Nc2cnn(C(c3ccccc3)c3ccccc3)c2)cc1F` [Compound 171, 4-(1-benzhydryl-1H-pyrazol-4-ylamino)-2-fluoro-N-(thiazol-2-yl)benzenesulfonamide]: the IC50 is below 2 µM.

Consider `O=S(=O)(Nc1nccs1)c1ccc(Nc2c3c(nn2-c2ccccc2)CCC3)cc1F` [Compound 174, 2-fluoro-4-(2-phenyl-2,4,5,6-tetrahydrocyclopenta[c]pyrazol-3-ylamino)-N-(thiazol-2-yl)benzenesulfonamide], for which the IC50 is below 2 µM.

On to `Cc1cc(Nc2ccc(S(=O)(=O)Nc3nccs3)c(F)c2)n(C(C)C2CC2)n1` (centres unmarked) [Compound 175, 4-(1-(1-cyclopropylethyl)-3-methyl-1H-pyrazol-5-ylamino)-2-fluoro-N-(thiazol-2-yl)benzenesulfonamide], for which the IC50 was below 2 µM.

With `Cc1cccc(-n2nc(C)cc2Nc2ccc(S(=O)(=O)Nc3nccs3)c(F)c2)c1` [Compound 176, 2-fluoro-4-(3-methyl-1-m-tolyl-1H-pyrazol-5-ylamino)-N-(thiazol-2-yl)benzenesulfonamide], the IC50 was below 2 µM.

`Cc1cc(Nc2ccc(S(=O)(=O)Nc3nccs3)c(F)c2)n(-c2cccc(F)c2)n1` [Compound 177, 2-fluoro-4-(1-(3-fluorophenyl)-3-methyl-1H-pyrazol-5-ylamino)-N-(thiazol-2-yl)benzenesulfonamide]: the IC50 is below 2 µM.

`Cc1cc(Nc2ccc(S(=O)(=O)Nc3nccs3)c(F)c2)n(-c2ccc(F)cc2)n1` [Compound 178, 2-fluoro-4-(1-(4-fluorophenyl)-3-methyl-1H-pyrazol-5-ylamino)-N-(thiazol-2-yl)benzenesulfonamide]: the IC50 is below 2 µM.

`Cc1cc(Nc2ccc(S(=O)(=O)Nc3nccs3)c(F)c2)n(-c2ccccc2C(F)(F)F)n1` [Compound 179, 2-fluoro-4-(3-methyl-1-(2-(trifluoromethyl)phenyl)-1H-pyrazol-5-ylamino)-N-(thiazol-2-yl)benzenesulfonamide]: the IC50 is below 2 µM.

Turning to `N#Cc1cn(-c2ccccc2)nc1Nc1ccc(S(=O)(=O)Nc2nccs2)c(F)c1` [Compound 180, 4-(4-cyano-1-phenyl-1H-pyrazol-3-ylamino)-2-fluoro-N-(thiazol-2-yl)benzenesulfonamide], the IC50 was 2 to 10 µM.

For the molecule `Cc1cc(Nc2ccc(S(=O)(=O)Nc3nccs3)c(F)c2)n(-c2cccc(C(F)(F)F)c2)n1` [Compound 181, 2-fluoro-4-(3-methyl-1-(3-(trifluoromethyl)phenyl)-1H-pyrazol-5-ylamino)-N-(thiazol-2-yl)benzenesulfonamide], the IC50 is below 2 µM.

Regarding `Cc1cc(Nc2ccc(S(=O)(=O)Nc3nccs3)c(F)c2)n(-c2cc(F)ccc2C)n1` [Compound 186, 2-fluoro-4-(1-(5-fluoro-2-methylphenyl)-3-methyl-1H-pyrazol-5-ylamino)-N-(thiazol-2-yl)benzenesulfonamide], the IC50 is below 2 µM.

Consider `Cc1cc(Nc2ccc(S(=O)(=O)Nc3nccs3)c(F)c2)n(-c2ccc(F)cc2C(F)(F)F)n1` [Compound 187, 2-fluoro-4-(1-(4-fluoro-2-(trifluoromethyl)phenyl)-3-methyl-1H-pyrazol-5-ylamino)-N-(thiazol-2-yl)benzenesulfonamide], for which the IC50 is below 2 µM.

Regarding `Cc1cc(Nc2ccc(S(=O)(=O)Nc3nccs3)c(F)c2)n(-c2c(Cl)cccc2Cl)n1` [Compound 189, 4-(1-(2,6-dichlorophenyl)-3-methyl-1H-pyrazol-5-ylamino)-2-fluoro-N-(thiazol-2-yl)benzenesulfonamide], the IC50 was below 2 µM.

Consider `Cc1cc(Nc2ccc(S(=O)(=O)Nc3nccs3)c(F)c2)n(-c2c(F)cccc2F)n1` [Compound 190, 4-(1-(2,6-difluorophenyl)-3-methyl-1H-pyrazol-5-ylamino)-2-fluoro-N-(thiazol-2-yl)benzenesulfonamide], for which the IC50 is below 2 µM.
